What all share (assay): inhibition of tumour cell growth, NCI panel, 48 h
For test [1], the system named is HCT-15.
The test system of test [2] is COLO 205.
Test [3] relates to NCI-H460.
Test [4] has as its system HL-60.
The subject of test [5] is RPMI-8226.
Test [6] has as its system SF-539.
In test [7] the test system is SNB-75.
For test [8], the system named is UACC-257.
The test system of test [9] is SW-620.
Test [10] concerns CCRF-CEM.
In test [11] the test system is CAKI-1.
Test [12] deals with OVCAR-8.
Test [13] has as its system SK-MEL-5.
Test [14] relates to UO-31.
For test [15], the system named is SK-MEL-28.
Test [16] relates to IGROV-1.
The test system of test [17] is NCI-H23.
In test [18] the test system is NCI-H226.

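Where inhibition never reached the appropriate level, the endpoint shown equals the highest concentration tested. Otherwise, values were interpolated linearly from a five-concentration, 48-hour dose response in 96-well plates. Abbreviation: GI50, concentration required for 50% inhibition of growth.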 Active and inactive are the calls of the source. Rule as the data show it: active = GI50 up to about 1.1 µM and inactive = higher.

Turning to `CCOP(=O)(OCC)C1CCCOC1=O` (configuration not stated), the GI50 in test [1] is over 100 µM; in [2] it was > 100 µM (inactive); in [3], > 100 µM (inactive); in test [4] it was > 100 µM (inactive); in [5], > 100 µM (inactive); in test [6], > 100 µM (inactive). For the same molecule, the GI50 in [7], in test [8], in test [9], in test [10], in test [11] and in [12] was > 100 µM (inactive) throughout. The GI50 in test [13], in [14], in [15], in test [16] and in [17] was > 100 µM (inactive) each time.
As for `CCc1ccccc1NC(=O)C1=C(C)NC(C)=C(C(=O)Nc2ccccc2CC)C1c1cccc([N+](=O)[O-])c1`, the GI50 in test [2] was 34.7 µM (inactive); in test [3] it was 27.7 µM (inactive); in test [4] it was 23.2 µM (inactive); in [5] it was 11.7 µM (inactive); in [18], 29.8 µM (inactive); in [6], 43.9 µM (inactive). In addition, the GI50 in [7] is 32.1 µM (inactive); in [8] it was 33.2 µM (inactive); in test [9], 47.5 µM (inactive); in [10] it was 12.1 µM (inactive); in test [11] it was 43.8 µM (inactive); in [12], 44.7 µM (inactive). Besides, the GI50 in test [13] was 27.7 µM (inactive); in [14], 11.5 µM (inactive); in test [15] it was 40.9 µM (inactive); in test [16], 21.8 µM (inactive); in test [17] it was 36.6 µM (inactive).
In the case of `C=C(c1ccccc1)c1cc2c(=O)[nH]ccc2n1C`, the GI50 was 27.3 µM in [1]; 15.9 µM (inactive) in test [2]; 30.1 µM (inactive) in test [3]; 16.3 µM (inactive) in test [4]; 24.7 µM (inactive) in test [5]; 11.9 µM (inactive) in [7]. Further, the GI50 in test [8] is 37.1 µM (inactive); in test [9], 28.5 µM (inactive); in test [10], 31.3 µM (inactive); in [11], 33.2 µM (inactive); in test [12], 34 µM (inactive); in [13], 26 µM (inactive). For the same molecule, the GI50 is 18.5 µM (inactive) in test [14], 44.7 µM (inactive) in [15], 44.4 µM (inactive) in [16] and 30.1 µM (inactive) in [17].
With `C1=CC(=P(c2ccccc2)(c2ccccc2)c2ccccc2)C=C1`, the GI50 in test [1] is 29.7 µM; in [2] it was 4.13 µM (inactive); in test [3], 7.83 µM (inactive); in test [4] it was 2.77 µM (inactive); in test [5], 3.18 µM (inactive); in test [6], 14.8 µM (inactive). Besides, the GI50 was 3.37 µM (inactive) in test [7]; 7.48 µM (inactive) in [8]; 16.1 µM (inactive) in test [9]; 3.42 µM (inactive) in [10]; 17.9 µM (inactive) in test [11]; 4.95 µM (inactive) in test [12]. Moreover, the GI50 was 12.2 µM (inactive) in [13]; 15.9 µM (inactive) in test [14]; 4.45 µM (inactive) in test [15]; 11.5 µM (inactive) in [16]; 11.5 µM (inactive) in [17].
In the case of `COc1cc(-c2cc(=O)c3ccccc3o2)ccc1N`, the GI50 was 27 µM in [1]; 69.3 µM (inactive) in [2]; 37.2 µM (inactive) in [3]; 16.6 µM (inactive) in [4]; 45.5 µM (inactive) in test [5]; 15.2 µM (inactive) in [18]. In addition, the GI50 in [6] is 30.8 µM (inactive); in test [7] it was 19.7 µM (inactive); in [8], > 100 µM (inactive); in test [9] it was 92.7 µM (inactive); in test [10] it was 40.6 µM (inactive); in test [11], 11.7 µM (inactive). Also, the GI50 in test [12] was 51.9 µM (inactive); in test [13], 41.1 µM (inactive); in test [14], 18.1 µM (inactive); in test [15], > 100 µM (inactive); in [16], > 100 µM (inactive); in test [17] it was 33.8 µM (inactive).
As to `CO/N=C(/C(=O)Nc1c[n+](CC(=O)[O-])cs1)c1csc(N)n1`, the GI50 in test [1] is over 100 µM; in test [2], > 100 µM (inactive); in test [3], > 100 µM (inactive); in test [4] it was > 100 µM (inactive); in test [5], > 100 µM (inactive); in [18], > 100 µM (inactive). Besides, the GI50 in [6], in test [8], in [9], in [10], in test [11] and in test [12] was > 100 µM (inactive) in each case. Also, the GI50 in test [13], in test [14], in test [16] and in test [17] was > 100 µM (inactive) each time.
Take `Cn1c(O)c(C(=O)Nc2cccs2)c(=O)[nH]c1=S`: the GI50 in [1] is 12.7 µM; in test [2] it was 16.6 µM (inactive); in test [3], 19.4 µM (inactive); in test [4], 78.9 µM (inactive); in test [5] it was 19.5 µM (inactive); in test [18] it was 14.5 µM (inactive). Also, the GI50 in test [6] is 16.5 µM (inactive); in test [7], 16.9 µM (inactive); in test [8] it was 15.4 µM (inactive); in [9] it was 26.2 µM (inactive); in test [10], 39 µM (inactive); in [11], 13 µM (inactive). Also, the GI50 in test [12] was 14 µM (inactive); in test [13], 13.6 µM (inactive); in test [14], 12.2 µM (inactive); in test [15], 15.1 µM (inactive); in test [16], 18.2 µM (inactive); in test [17] it was 14.5 µM (inactive).
On to `Clc1ccc(-c2nnc(-c3nn(-c4ccccc4)c4nc5ccccc5nc34)o2)cc1`, for which the GI50 was 55 µM in [1]; > 100 µM (inactive) in [2]; > 100 µM (inactive) in test [3]; 22.5 µM (inactive) in test [4]; 24.7 µM (inactive) in test [5]; 76 µM (inactive) in test [18]. Besides, the GI50 is > 100 µM (inactive) in test [6]; 95.1 µM (inactive) in [7]; 67.5 µM (inactive) in test [8]; 62.4 µM (inactive) in test [9]; 28.2 µM (inactive) in test [10]; > 100 µM (inactive) in [11]. The GI50 in [12] was 82.8 µM (inactive); in [13], 12.9 µM (inactive); in test [14] it was > 100 µM (inactive); in test [15], > 100 µM (inactive); in test [16], 65.3 µM (inactive); in test [17], 42.4 µM (inactive).
Turning to `CC(=O)n1c(=O)c2cc3c(=O)n(-c4cccc(C#N)c4)c(=O)c3cc2c1=O`, the GI50 in test [1] is over 100 µM; in test [2] it was > 100 µM (inactive); in [3], > 100 µM (inactive); in test [4], > 100 µM (inactive); in [18], > 100 µM (inactive); in test [6] it was > 100 µM (inactive). Besides, the GI50 was 23.7 µM (inactive) in test [7]; > 100 µM (inactive) in test [8]; > 100 µM (inactive) in test [9]; > 100 µM (inactive) in test [10]; > 100 µM (inactive) in test [11]; > 100 µM (inactive) in test [12]. In addition, the GI50 in test [13], in test [14], in test [15], in test [16] and in [17] was > 100 µM (inactive) in each case.
In the case of `COc1cc(-c2nn3c(=O)n(-c4ccc(Cl)cc4)c(=O)nc3s2)cc(OC)c1OC`, the GI50 in test [1] is over 88.3 µM; in [2] it was > 100 µM (inactive); in test [3] it was > 100 µM (inactive); in test [4] it was > 50 µM (inactive); in test [5], > 50 µM (inactive); in [18], > 55.7 µM (inactive). For the same molecule, the GI50 in test [6] was 17 µM (inactive); in test [7], 8.24 µM (inactive); in test [8], > 58.7 µM (inactive); in test [9], > 100 µM (inactive); in test [10], > 100 µM (inactive); in [11], 18.2 µM (inactive). Besides, the GI50 in [12] was > 49.5 µM (inactive); in test [13], > 52.4 µM (inactive); in test [14], > 76.6 µM (inactive); in test [15], > 93.1 µM (inactive); in test [16], > 89.1 µM (inactive); in [17] it was 37.6 µM (inactive).
On to `CC1CCC2(NC1)OC1CC3[C@@H]4CC=C5C=CCC[C@]5(C)C4CC[C@]3(C)C1C2C` (some centres not stated), for which the GI50 in [1] is 21 µM; in test [2], 17.3 µM (inactive); in test [3], 19 µM (inactive); in [4] it was 12.3 µM (inactive); in [5], 20 µM (inactive); in [18], 35.2 µM (inactive). For the same molecule, the GI50 in [6] was 19.6 µM (inactive); in test [7], 15.5 µM (inactive); in test [8] it was 22.5 µM (inactive); in [9] it was 19.7 µM (inactive); in [10], 21 µM (inactive); in test [11], 26.3 µM (inactive). The GI50 in test [12] is 17.9 µM (inactive); in [13] it was 15.3 µM (inactive); in test [14], 21.8 µM (inactive); in test [15], 15.6 µM (inactive); in test [16] it was 30.3 µM (inactive); in [17], 32.3 µM (inactive).
For the molecule `COc1ccc(-c2cc(=O)c3c(O)cccc3o2)c(OC)c1OC`, the GI50 in test [1] was 10.1 µM; in test [2] it was > 100 µM (inactive); in test [3], 80 µM (inactive); in [4], 10.1 µM (inactive); in test [5], > 100 µM (inactive); in test [18] it was > 100 µM (inactive). Also, the GI50 in [6] was 20.6 µM (inactive); in test [7], 11.9 µM (inactive); in test [8], > 100 µM (inactive); in test [9], 22.4 µM (inactive); in [10], > 100 µM (inactive); in [11], 97.3 µM (inactive). The GI50 is > 100 µM (inactive) in [12]; 24.7 µM (inactive) in test [13]; > 100 µM (inactive) in [15]; > 100 µM (inactive) in test [16]; > 100 µM (inactive) in [17].

Source of the values: ChEMBL document CHEMBL1201862, “PubChem BioAssay data set” (2004).
